Patent publication US20040034107A1, “Ubiquinone Qn for the treatment of pain” (MSE Pharmazeutika GmbH, priority 1999, published 2004)

Experiments:
[1] = local treatment of herpes zoster pain; assay type: in vivo; conditions: local application in the form of creams or gels
Text: In the case of herpes zoster, even the local application of Q-10 in the form of creams or gels has even proven useful. It is critical that sufficient amounts of the ubiquinones or ubiquinone precursors arrive at the place in which the pain caused by disturbances of the signal transmission of the nerve system has its origin.

[2] = treatment of migraine pain with Q-10; assay type: in vivo
Method: The substances to be used according to the invention can be preferably employed for the treatment of pain which is caused by migraine, dialysis, herpes zoster, cancer, diabetic neuropathy, or generalized pain conditions. The treatment can be done by administration in oral, parenteral, local, inhalative or intranasal form. The kind of administration must be adapted to the pain condition to be treated. […] Good results were achieved already with doses of about 20 mg.
Due to the low dose which is already effective for treating migraine pain, the ubiquinone Qn or its precursors are preferably used in the form of a spray, preferably a nasal spray, according to the invention.

COC1=C(OC)C(=O)C(C/C=C(\C)CC/C=C(\C)CC/C=C(\C)CC/C=C(\C)CC/C=C(\C)CC/C=C(\C)CC/C=C(\C)CC/C=C(\C)CC/C=C(\C)CCC=C(C)C)=C(C)C1=O [Q-10, 2,3-dimethoxy-5-methyl-6-decaprenyl-1,4-benzoquinone]
treatment of herpes zoster pain [1]: proven useful
treatment of migraine ([2]; oral administration, high doses): only with very limited success
elimination of migraine pain ([2]; oral and nasal sprays, small amounts): fast and effective elimination of migraine pain
results in migraine pain ([2]; sprays, doses of about 20 mg): Good results
